Assay results published in publication PMC8948257, “Limited solvation of an electron donating tryptophan stabilizes a photoinduced charge-separated state in plant (6–4) photolyase” (Scientific Reports, 2022).
Residue numbers refer to the chain shown, from its start.

Legend:
Type in all cases: binding
Details in all cases: 5 mM L-cysteine, 20 mM phosphate pH 7.5, 500 mM NaCl, 10% glycerol, anaerobic, >430 nm light, on ice; native bound cofactor
[1] = target: T1, Xl64 (Xenopus laevis (6-4) PL) (Xenopus laevis, UniProt Q9I910, W370F/S372H, form not given); experiment: steady-state FAD photoreduction by UV-Vis
T1 construct: gene Xl64phr; pET28a(+), expressed in E. coli; only the W370F/S372H mutant made here
T1 sequence (Q9I910 1-526 W370F/S372H): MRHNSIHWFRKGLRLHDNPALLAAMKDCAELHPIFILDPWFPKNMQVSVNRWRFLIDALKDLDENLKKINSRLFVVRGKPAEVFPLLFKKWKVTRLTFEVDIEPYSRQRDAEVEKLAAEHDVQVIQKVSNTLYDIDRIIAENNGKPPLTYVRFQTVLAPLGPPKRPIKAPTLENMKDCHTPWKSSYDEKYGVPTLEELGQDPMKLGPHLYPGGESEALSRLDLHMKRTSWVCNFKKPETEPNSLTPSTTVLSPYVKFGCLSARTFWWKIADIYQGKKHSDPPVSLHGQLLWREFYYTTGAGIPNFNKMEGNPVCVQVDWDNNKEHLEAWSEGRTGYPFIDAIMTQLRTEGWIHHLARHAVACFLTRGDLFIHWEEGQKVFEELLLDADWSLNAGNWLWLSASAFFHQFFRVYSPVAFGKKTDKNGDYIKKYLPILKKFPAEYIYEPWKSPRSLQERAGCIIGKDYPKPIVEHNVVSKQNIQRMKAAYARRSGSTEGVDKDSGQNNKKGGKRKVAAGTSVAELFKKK

[2] = target: T2, At64 ((6-4) photolyase from Arabidopsis thaliana) (Arabidopsis thaliana, UniProt O48652, H382Y); experiment: steady-state FAD photoreduction by UV-Vis
T2 construct: gene UVR3; pET-28a(+) NdeI/XhoI, His-tagged, expressed in E. coli C41(DE3)/pLysS; TALON and heparin purification
T2 sequence (O48652 20-556 H382Y): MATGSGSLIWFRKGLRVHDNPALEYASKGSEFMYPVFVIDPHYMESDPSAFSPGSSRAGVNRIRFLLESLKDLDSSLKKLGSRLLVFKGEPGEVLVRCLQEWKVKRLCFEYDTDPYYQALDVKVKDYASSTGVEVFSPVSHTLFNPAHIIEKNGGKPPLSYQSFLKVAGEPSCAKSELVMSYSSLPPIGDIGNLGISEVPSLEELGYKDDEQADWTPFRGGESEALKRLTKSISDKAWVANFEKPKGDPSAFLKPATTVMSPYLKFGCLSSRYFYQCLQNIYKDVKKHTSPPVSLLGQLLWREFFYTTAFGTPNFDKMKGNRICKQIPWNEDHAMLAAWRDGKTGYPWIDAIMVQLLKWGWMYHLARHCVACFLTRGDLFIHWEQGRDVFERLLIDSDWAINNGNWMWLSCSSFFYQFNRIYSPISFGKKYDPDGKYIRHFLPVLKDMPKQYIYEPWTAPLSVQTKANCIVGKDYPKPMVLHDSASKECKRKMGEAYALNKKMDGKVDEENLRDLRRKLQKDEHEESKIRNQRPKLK

[3] = target: T3, At64 ((6-4) photolyase from Arabidopsis thaliana) (Arabidopsis thaliana, UniProt O48652, H382D); experiment: steady-state FAD photoreduction by UV-Vis
T3 construct: gene UVR3; pET-28a(+) NdeI/XhoI, His-tagged, expressed in E. coli C41(DE3)/pLysS; TALON and heparin purification
T3 sequence (O48652 20-556 H382D): T2 sequence (O48652 20-556 H382Y) with Y363D

[4] = target: T4, At64 ((6-4) photolyase from Arabidopsis thaliana) (Arabidopsis thaliana, UniProt O48652, H382S); experiment: steady-state FAD photoreduction by UV-Vis; transient absorption
T4 construct: gene UVR3; pET-28a(+) NdeI/XhoI, His-tagged, expressed in E. coli C41(DE3)/pLysS; TALON and heparin purification
T4 sequence (O48652 20-556 H382S): T2 sequence (O48652 20-556 H382Y) with Y363S

[5] = target: T5, At64 ((6-4) photolyase from Arabidopsis thaliana) (Arabidopsis thaliana, UniProt O48652, H382V); experiment: steady-state FAD photoreduction by UV-Vis
T5 construct: gene UVR3; pET-28a(+) NdeI/XhoI, His-tagged, expressed in E. coli C41(DE3)/pLysS; TALON and heparin purification
T5 sequence (O48652 20-556 H382V): T2 sequence (O48652 20-556 H382Y) with Y363V

[6] = target: T6, At64 ((6-4) photolyase from Arabidopsis thaliana) (Arabidopsis thaliana, UniProt O48652, H382N); experiment: steady-state FAD photoreduction by UV-Vis
T6 construct: gene UVR3; pET-28a(+) NdeI/XhoI, His-tagged, expressed in E. coli C41(DE3)/pLysS; TALON and heparin purification
T6 sequence (O48652 20-556 H382N): T2 sequence (O48652 20-556 H382Y) with Y363N

## Cc1cc2nc3c(=O)[nH]c(=O)nc-3n(C[C@H](O)[C@H](O)[C@H](O)COP(=O)(O)OP(=O)(O)OC[C@H]3O[C@@H](n4cnc5c(N)ncnc54)[C@H](O)[C@@H]3O)c2cc1C [flavin adenine dinucleotide]
[1]
  steady-state FAD photoreduction by UV-Vis: the W370F/S372H double mutant of Xl64 (Xl64-W370F/S372H)
[2]
  steady-state FAD photoreduction by UV-Vis: we successfully purified the H382D, H382N, H382V and H382Y mutants of At64
[3]
  steady-state FAD photoreduction by UV-Vis: we successfully purified the H382D, H382N, H382V and H382Y mutants of At64
[4]
  steady-state FAD photoreduction by UV-Vis; transient absorption: FAD photoreduction in At64-H382S occurred with a half-life
[5]
  steady-state FAD photoreduction by UV-Vis: we successfully purified the H382D, H382N, H382V and H382Y mutants of At64
[6]
  steady-state FAD photoreduction by UV-Vis: we successfully purified the H382D, H382N, H382V and H382Y mutants of At64
